From ChEMBL document CHEMBL1909046, “DrugMatrix in vitro pharmacology data”

How the values were obtained:
[1] = molecular target: T1, Cytochrome P450 2A6 (Homo sapiens, UniProt P11509); conditions: bti-tn-5b1-4; note: in other assays of this panel Not Active means under 50% inhibition at 10 µM
T1 sequence (P11509 whole entry): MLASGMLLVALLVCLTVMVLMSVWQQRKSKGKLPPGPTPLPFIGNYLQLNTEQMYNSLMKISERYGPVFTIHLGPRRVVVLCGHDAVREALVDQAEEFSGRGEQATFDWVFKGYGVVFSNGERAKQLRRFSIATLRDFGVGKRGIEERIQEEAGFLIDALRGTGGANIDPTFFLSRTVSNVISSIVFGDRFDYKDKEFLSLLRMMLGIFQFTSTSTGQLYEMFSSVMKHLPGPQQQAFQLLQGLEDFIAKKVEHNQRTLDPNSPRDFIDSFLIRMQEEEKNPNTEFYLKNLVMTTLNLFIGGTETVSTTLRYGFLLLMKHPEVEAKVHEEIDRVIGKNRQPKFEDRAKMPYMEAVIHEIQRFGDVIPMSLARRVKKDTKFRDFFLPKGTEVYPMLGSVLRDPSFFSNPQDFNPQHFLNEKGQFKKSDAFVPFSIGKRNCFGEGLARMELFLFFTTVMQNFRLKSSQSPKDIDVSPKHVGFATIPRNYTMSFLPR

[2] = molecular target: Tyrosine-protein kinase Fyn (Homo sapiens, UniProt P06241); assay: biochemical; type: cell-based, Insect cells;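 note: enzymatic inhibition of Fyn kinase activity measured with Poly(Glu:Tyr) as the phosphorylation substrate; in other assays of this panel Not Active means under 50% inhibition at 10 µM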
Chain of Tyrosine-protein kinase Fyn (P06241 whole entry): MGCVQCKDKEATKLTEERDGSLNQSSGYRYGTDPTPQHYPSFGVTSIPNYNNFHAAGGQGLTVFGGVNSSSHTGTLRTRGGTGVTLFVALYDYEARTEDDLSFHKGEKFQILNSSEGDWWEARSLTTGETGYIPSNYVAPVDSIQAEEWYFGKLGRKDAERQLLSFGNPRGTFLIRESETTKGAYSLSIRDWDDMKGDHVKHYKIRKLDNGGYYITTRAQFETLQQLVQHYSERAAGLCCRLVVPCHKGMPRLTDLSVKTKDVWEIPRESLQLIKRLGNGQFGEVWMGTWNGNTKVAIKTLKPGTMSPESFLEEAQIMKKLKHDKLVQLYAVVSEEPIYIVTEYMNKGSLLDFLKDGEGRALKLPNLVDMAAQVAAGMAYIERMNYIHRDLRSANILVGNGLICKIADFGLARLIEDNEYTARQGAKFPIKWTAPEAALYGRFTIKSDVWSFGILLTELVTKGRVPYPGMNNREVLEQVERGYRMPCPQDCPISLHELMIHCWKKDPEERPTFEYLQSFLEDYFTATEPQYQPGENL

[3] = molecular target: T2, Substance-K receptor (Homo sapiens, UniProt P21452); type: cell membranes, CHO, Membrane; note: in other assays of this panel Not Active means under 50% inhibition at 10 µM
T2 sequence (P21452 whole entry): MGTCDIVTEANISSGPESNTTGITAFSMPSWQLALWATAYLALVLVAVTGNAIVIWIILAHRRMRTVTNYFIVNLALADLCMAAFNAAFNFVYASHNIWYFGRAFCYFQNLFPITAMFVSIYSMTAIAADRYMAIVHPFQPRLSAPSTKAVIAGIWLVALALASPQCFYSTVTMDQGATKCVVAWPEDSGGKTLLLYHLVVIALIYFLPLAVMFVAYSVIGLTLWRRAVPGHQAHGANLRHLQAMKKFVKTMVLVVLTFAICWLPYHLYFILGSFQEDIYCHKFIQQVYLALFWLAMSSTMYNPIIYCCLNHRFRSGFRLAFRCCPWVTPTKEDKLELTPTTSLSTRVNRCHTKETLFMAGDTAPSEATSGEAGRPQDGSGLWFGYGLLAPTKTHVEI

[4] = molecular target: Beta-2 adrenergic receptor (Homo sapiens, UniProt P07550); assay: DRUGMATRIX: Adrenergic beta2 radioligand binding (ligand: [3H] CGP-12177); type: cell membranes, CHO, Membrane; conditions: cho; Not Active = under 50% inhibition at 10 µM
[5] = DRUGMATRIX: GABAA, Muscimol, Central radioligand binding (ligand: [3H] Muscimol); type: cell membranes, Rattus norvegicus, Wistar, Brain, Membrane; conditions: Not Active = under 50% inhibition at 10 µM
[6] = molecular target: T3, Estrogen receptor (Homo sapiens, UniProt P03372); conditions: sf9; note: in other assays of this panel Not Active means under 50% inhibition at 10 µM
T3 sequence (P03372 whole entry): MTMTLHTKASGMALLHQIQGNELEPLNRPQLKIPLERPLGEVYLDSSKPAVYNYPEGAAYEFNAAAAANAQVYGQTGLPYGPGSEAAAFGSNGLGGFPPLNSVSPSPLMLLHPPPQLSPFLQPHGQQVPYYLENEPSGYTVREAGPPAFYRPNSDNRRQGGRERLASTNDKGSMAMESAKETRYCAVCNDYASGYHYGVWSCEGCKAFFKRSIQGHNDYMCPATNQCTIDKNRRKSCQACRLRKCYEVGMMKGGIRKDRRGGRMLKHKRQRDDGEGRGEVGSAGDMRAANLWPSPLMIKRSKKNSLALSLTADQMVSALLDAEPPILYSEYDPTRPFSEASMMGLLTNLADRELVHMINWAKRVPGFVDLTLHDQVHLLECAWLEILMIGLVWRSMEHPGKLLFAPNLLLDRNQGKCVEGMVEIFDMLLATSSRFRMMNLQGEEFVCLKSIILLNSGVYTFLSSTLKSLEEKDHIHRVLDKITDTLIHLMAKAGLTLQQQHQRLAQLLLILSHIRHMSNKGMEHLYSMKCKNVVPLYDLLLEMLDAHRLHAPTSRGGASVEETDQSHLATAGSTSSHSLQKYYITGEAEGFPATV

[7] = DRUGMATRIX: beta-Lactamase enzyme inhibition (substrate: Nitrocefin); parameters: species or system Bacillus cereus; conditions: Not Active = under 50% inhibition at 10 µM

| Compound | IC50 [1] | Ki [1] | IC50 ([2]; insect cells) | Ki ([2]; insect cells) | IC50 ([3]; cho) | Ki ([3]; cho) | IC50 [4] | Ki [4] | IC50 [5] | Ki [5] | IC50 [6] | Ki [6] | IC50 [7] | Ki [7] | IC50 ([2]; read-out: IC50) [µM] | IC50 ([3]; read-out: IC50) [µM] | Ki ([3]; read-out: Ki) [µM] |
| --- | --- | --- | --- | --- | --- | --- | --- | --- | --- | --- | --- | --- | --- | --- | --- | --- | --- |
| STANNOUS FLUORIDE | Not Active | Not Active | Not Active | Not Active | Not Active | Not Active | Not Active | Not Active | Not Active | Not Active | Not Active | Not Active | Not Active | Not Active |  |  |  |
| C[C@@H](O)[C@H]1C(=O)N2C(C(=O)O)=C(S[C@@H]3CN[C@H](C(=O)N(C)C)C3)[C@H](C)[C@H]12 [MEROPENEM] | Not Active | Not Active | Not Active |  | Not Active |  | Not Active |  | Not Active | Not Active |  |  | Not Active | Not Active |  |  |  |
| COc1ncnc(NS(=O)(=O)c2ccc(N)cc2)c1OC [SULFADOXINE] | Not Active | Not Active | Not Active |  | Not Active |  | Not Active |  | Not Active | Not Active | Not Active |  | Not Active | Not Active |  |  |  |
| CCCc1nn(C)c2c(=O)[nH]c(-c3cc(S(=O)(=O)N4CCN(C)CC4)ccc3OCC)nc12 | Not Active | Not Active | Not Active |  | Not Active |  | Not Active |  | Not Active | Not Active |  |  | Not Active | Not Active |  |  |  |
| COc1ccc(/C=C/C(=O)Nc2ccccc2C(=O)O)cc1OC | Not Active | Not Active | Not Active |  | Not Active |  | Not Active |  | Not Active | Not Active | Not Active |  | Not Active | Not Active |  |  |  |
| CC1=C(CC(=O)O)c2cc(F)ccc2/C1=C\c1ccc(S(C)(=O)=O)cc1 [EXISULIND] | Not Active | Not Active | Not Active |  | Not Active |  | Not Active |  | Not Active | Not Active | Not Active |  | Not Active | Not Active |  |  |  |
| CN1C2CCCC1CC(NC(=O)c1nn(C)c3ccccc13)C2 (stereo not given) [GRANISETRON] | Not Active | Not Active | Not Active |  | Not Active |  | Not Active |  |  |  | Not Active |  |  |  |  |  |  |
| Cc1cn([C@H]2C[C@H](N=[N+]=[N-])[C@@H](CO)O2)c(=O)[nH]c1=O [ZIDOVUDINE] | Not Active | Not Active | Not Active |  | Not Active |  | Not Active |  | Not Active | Not Active | Not Active |  | Not Active | Not Active |  |  |  |
| OCCN1CCN(CCCN2c3ccccc3Sc3ccc(C(F)(F)F)cc32)CC1 [FLUPHENAZINE] | Not Active | Not Active |  |  |  |  | Not Active |  |  |  | Not Active |  |  |  | 7.99 | 22.5 | 7.49 |
| CC(C)(C)NC[C@H](O)COc1nsnc1N1CCOCC1 [TIMOLOL] | Not Active | Not Active | Not Active |  | Not Active |  |  |  | Not Active | Not Active |  |  | Not Active | Not Active |  |  |  |
| Nc1nc2c(c(=O)[nH]1)N(C=O)C(CNc1ccc(C(=O)N[C@@H](CCC(=O)O)C(=O)O)cc1)CN2 (stereo not given in full) [LEUCOVORIN] | Not Active | Not Active | Not Active |  | Not Active |  | Not Active |  | Not Active | Not Active |  |  | Not Active | Not Active |  |  |  |
| O=c1n(CCCN2CCN(c3cccc(Cl)c3)CC2)nc2ccccn12 [TRAZODONE] | Not Active | Not Active | Not Active |  | Not Active |  | Not Active |  |  |  |  |  |  |  |  |  |  |
| COc1cc(C(=O)NS(=O)(=O)c2ccccc2C)ccc1Cc1cn(C)c2ccc(NC(=O)OC3CCCC3)cc12 [ZAFIRLUKAST] | Not Active | Not Active | Not Active |  | Not Active |  | Not Active |  | Not Active | Not Active | Not Active |  | Not Active | Not Active |  |  |  |
| CCOC(N)=O | Not Active | Not Active | Not Active |  | Not Active |  | Not Active |  | Not Active | Not Active | Not Active |  | Not Active | Not Active |  |  |  |
| CN(CCOc1ccc(CC2SC(=O)NC2=O)cc1)c1ccccn1 (stereo not given) [ROSIGLITAZONE] | Not Active | Not Active | Not Active |  | Not Active |  | Not Active |  | Not Active | Not Active | Not Active |  | Not Active | Not Active |  |  |  |
| Nc1ccc(S(=O)(=O)Nc2ncccn2)cc1 [SULFADIAZINE] | Not Active | Not Active | Not Active |  | Not Active |  | Not Active |  | Not Active | Not Active |  |  | Not Active | Not Active |  |  |  |
| CCS(=O)(=O)CCn1c([N+](=O)[O-])cnc1C [TINIDAZOLE] |  |  | Not Active |  | Not Active |  | Not Active |  | Not Active | Not Active | Not Active |  | Not Active | Not Active |  |  |  |
| O=C(O)C(Cl)(Cl)Cl [TRICHLOROACETIC ACID] | Not Active | Not Active | Not Active |  | Not Active |  | Not Active |  | Not Active | Not Active |  |  | Not Active | Not Active |  |  |  |
| C=C(C)[C@H]1Cc2c(ccc3c2O[C@@H]2COc4cc(OC)c(OC)cc4[C@@H]2C3=O)O1 [ROTENONE] | Not Active | Not Active | Not Active |  | Not Active |  | Not Active |  | Not Active | Not Active |  |  | Not Active | Not Active |  |  |  |
| CC(C)OC(=O)C(C)(C)Oc1ccc(C(=O)c2ccc(Cl)cc2)cc1 [FENOFIBRATE] | Not Active | Not Active | Not Active |  | Not Active |  | Not Active |  |  |  | Not Active |  |  |  |  |  |  |
| CCN(CC)CC#CCOC(=O)C(O)(c1ccccc1)C1CCCCC1 (stereo not given) [OXYBUTYNIN] | Not Active | Not Active | Not Active |  | Not Active |  | Not Active |  |  |  |  |  |  |  |  |  |  |
| CC(=O)Nc1nnc(S(N)(=O)=O)s1 [ACETAZOLAMIDE] | Not Active | Not Active | Not Active |  | Not Active |  | Not Active |  |  |  | Not Active |  |  |  |  |  |  |
| CNS(=O)(=O)Cc1ccc2[nH]cc(CCN(C)C)c2c1 | Not Active | Not Active | Not Active |  | Not Active |  | Not Active |  | Not Active | Not Active |  |  | Not Active | Not Active |  |  |  |
| CC[C@@H](CO)NC(=O)[C@@H]1C=C2c3cccc4c3c(cn4C)C[C@H]2N(C)C1 [METHYSERGIDE] | Not Active | Not Active | Not Active |  | Not Active |  | Not Active |  |  |  | Not Active |  |  |  |  |  |  |
| O=c1[nH]c2ccccc2n1CCCN1CCC(n2c(=O)[nH]c3cc(Cl)ccc32)CC1 [DOMPERIDONE] |  |  | Not Active |  | Not Active |  | Not Active |  |  |  |  |  |  |  |  |  |  |
| COc1ccc(CN2CCNCC2)c(OC)c1OC [TRIMETAZIDINE] |  |  | Not Active |  | Not Active |  | Not Active |  | Not Active | Not Active | Not Active |  | Not Active | Not Active |  |  |  |
